Source: patent US11124497B1, “Inhibitors of cysteine proteases and methods of use thereof” (priority 2020, dated 2021)
Read-outs that look alike come from different tables or passages of the source.

Tested on: HCoV 229E
Test: HCoV 229E cytopathic effect (CPE) assay
Type: cell-based, Human Coronavirus (HCov) 229E
Details: CellTiter Glo, read-out: 229 ECPE EC50
Procedure: Compounds were assayed using standard methods against multiple coronaviral strains, including HCoV 229E and OC43 strains. The antiviral activity of compounds was calculated based on the protection of the virus-induced CPE at each concentration normalized by the virus control.
Cytopathic effect (CPE) was measured by CellTiter Glo following the manufacturer's manual. The antiviral activity of compounds was calculated based on the protection of the virus-induced CPE at each concentration normalized by the virus control.

| SMILES | EC50 (unidentified human coronavirus) [µM] | EC50 [µM] |
| --- | --- | --- |
| COc1cccc2[nH]c(C(=O)N[C@@H](CC(C)C)C(=O)N[C@@H](C[C@@H]3CCNC3=O)C(O)C#N)cc12 (single isomer, unassigned) [134 (Isomer 1)] | < 22 | – |
| COc1cccc2[nH]c(C(=O)N[C@@H](CC(C)C)C(=O)N[C@@H](C[C@@H]3CCNC3=O)C(O)C#N)cc12 (single isomer, unassigned) [135 (Isomer 2)] | – | < 22 |
| COc1cccc2[nH]c(C(=O)N[C@@H](CC(C)C)C(=O)N[C@@H](C[C@@H]3CCNC3=O)C(C#N)NC(C)(C)C)cc12 (single isomer, unassigned) [323 (Isomer 1)] | < 22 | – |
| COc1cccc2[nH]c(C(=O)N3CC4(CCCCC4)CC3C(=O)N[C@H](C#N)C[C@@H]3CCNC3=O)cc12 (single isomer, unassigned) [389A (Isomer 1)] | < 22 | – |
| COc1cccc2[nH]c(C(=O)N[C@@H](CC(C)C)C(=O)N[C@@H](C[C@@H]3CCNC3=O)C(C#N)NCc3ccccc3)cc12 (single isomer, unassigned) [507 (Isomer 1.1)] | < 22 | – |
| CCNC(C#N)[C@H](C[C@@H]1CCNC1=O)NC(=O)[C@H](CC(C)C)NC(=O)c1cc2c(OC)cccc2[nH]1 (single isomer, unassigned) [511 (Isomer 1)] | < 22 | – |
| COc1cccc2[nH]c(C(=O)N3CC4(CCCCC4)CC3C(=O)N[C@H](C#N)C[C@@H]3CCCNC3=O)cc12 (single isomer, unassigned) [681 (Isomer 1)] | < 22 | – |
| N#C[C@H](C[C@@H]1CCCNC1=O)NC(=O)C1CC2(CCC2)CN1C(=O)c1cc2cccc(Cl)c2[nH]1 (single isomer, unassigned) [729 (Isomer 1)] | < 22 | – |
| CC(C)C[C@H](NC(=O)c1nc2ccccc2[nH]1)C(=O)N[C@H](C#N)C[C@@H]1CCNC1=O [Compound 103, N-[(1S)-1-[[(1S)-1-cyano-2-[(3S)-2-oxopyrrolidin-3-yl]ethyl]carbamoyl]-3-methyl-butyl]-1H-benzimidazole-2-carboxamide] | < 22 | – |
| CC(C)C[C@H](NC(=O)c1nc2cccc(Cl)c2[nH]1)C(=O)N[C@H](C#N)C[C@@H]1CCNC1=O [Compound 127] | – | 2 to 10 |
| CC(C)C[C@H](NC(=O)c1nc2ncccc2[nH]1)C(=O)N[C@H](C#N)C[C@@H]1CCNC1=O [Compound 131, N-[(1S)-1-[[(1S)-1-cyano-2-[(3S)-2-oxopyrrolidin-3-yl]ethyl]carbamoyl]-3-methyl-butyl]-1H-imidazo[4,5-b]pyridine-2-carboxamide] | 2 to 10 | – |
| CC(C)C[C@H](NC(=O)c1nc2cccc(Cl)c2[nH]1)C(=O)N[C@H](C#N)C[C@@H]1CCNC1=O [Compound 133] | – | < 22 |
| COc1cccc2[nH]c(C(=O)NC(CC(C)C)C(=O)NC(CC3CCNC3=O)C(O)C#N)cc12 (stereo not drawn) [Compound 134] | < 22 | – |
| COc1cccc2[nH]c(C(=O)N[C@@H](CC(C)C)C(=O)N[C@H](/C=C/S(C)(=O)=O)C[C@@H]3CCNC3=O)cc12 [Compound 136, 4-methoxy-N-[(1S)-3-methyl-1-[[(E,1S)-3-methylsulfonyl-1-[[(3S)-2-oxopyrrolidin-3-yl]methyl]allyl]carbamoyl]butyl]-1H-indole-2-carboxamide] | > 30 | – |
| COc1cccc2[nH]c(C(=O)N3C[C@H](c4ccccc4)C[C@H]3C(=O)N[C@H](C#N)C[C@@H]3CCNC3=O)cc12 [Compound 171] | < 22 | – |
| COc1cccc2[nH]c(C(=O)N[C@@H](CC3CCCCC3)C(=O)N[C@H](C#N)C[C@@H]3CCNC3=O)cc12 [Compound 185, N-[(1S)-2-[[(1S)-1-cyano-2-[(3S)-2-oxopyrrolidin-3-yl]ethyl]amino]-1-(cyclohexylmethyl)-2-oxo-ethyl]-4-methoxy-1H-indole-2-carboxamide] | < 22 | – |
| COc1cccc2[nH]c(C(=O)N3C[C@H]4C([C@H]3C(=O)N[C@H](C#N)C[C@@H]3CCNC3=O)C4(C)C)cc12 (stereo partly drawn) [Compound 197, (2S,5S)—N-[(1S)-1-cyano-2-[(3S)-2-oxopyrrolidin-3-yl]ethyl]-3-(4-methoxy-1H-indole-2-carbonyl)-6,6-dimethyl-3-azabicyclo[3.1.0]hexane-2-carboxamide] | < 22 | – |
| COc1cccc2[nH]c(C(=O)N[C@@H](CC3CC3)C(=O)N[C@H](C#N)C[C@@H]3CCNC3=O)cc12 [Compound 205, N—((S)-1-(((S)-1-cyano-2-((S)-2-oxopyrrolidin-3-yl)ethyl)amino)-3-cyclopropyl-1-oxopropan-2-yl)-4-methoxy-1H-indole-2-carboxamide] | < 22 | – |
| COc1cccc2[nH]c(C(=O)N[C@@H](CC(C)C)C(=O)N[C@@H](C[C@@H]3CCNC3=O)C(C#N)N[C@@H](C)c3ccccc3)cc12 (stereo partly drawn) [Compound 329] | < 22 | – |
| COc1cccc2[nH]c(C(=O)N3C[C@H](c4ccccc4)CC3C(=O)N[C@H](C=O)C[C@@H]3CCNC3=O)cc12 (stereo partly drawn) [Compound 344A] | < 22 | – |
| COc1cccc2[nH]c(C(=O)N[C@@H](CC(C)C)C(=O)N[C@@H](C[C@@H]3CCNC3=O)C(N)C#N)cc12 (stereo partly drawn) [Compound 344C, N-[(1S)-1-[[(1S)-2-amino-2-cyano-1-[[(3S)-2-oxopyrrolidin-3-yl]methyl]ethyl]carbamoyl]-3-methyl-butyl]-4-methoxy-1H-indole-2-carboxamide] | < 22 | – |

| SMILES | EC50 (unidentified human coronavirus) [µM] | EC50 [µM] |
| --- | --- | --- |
| COc1cccc2[nH]c(C(=O)N3C[C@H](c4ccccc4)C[C@H]3C(=O)N[C@@H](C[C@@H]3CCNC3=O)C(O)C#N)cc12 (stereo partly drawn) [Compound 345] | < 22 | – |
| CC(C)C[C@H](NC(=O)c1cc2c(OC(F)(F)F)cccc2[nH]1)C(=O)N[C@H](C#N)C[C@@H]1CCNC1=O [Compound 361] | < 22 | – |
| CC(C)C[C@H](NC(=O)c1nc2c(OC(F)(F)F)cccc2[nH]1)C(=O)N[C@H](C#N)C[C@@H]1CCNC1=O [Compound 363] | < 22 | – |
| N#C[C@H](C[C@@H]1CCNC1=O)NC(=O)[C@H](CC1CC1)NC(=O)c1cc2c(C3CC3)cccc2[nH]1 [Compound 375A] | < 22 | – |
| CCOc1cccc2[nH]c(C(=O)N[C@@H](CC(C)C)C(=O)N[C@H](C#N)C[C@@H]3CCNC3=O)cc12 [Compound 377] | < 22 | – |
| COc1cccc2[nH]c(C(=O)N3C[C@@H]4CCC[C@@H]4[C@H]3C(=O)N[C@H](C#N)C[C@@H]3CCNC3=O)cc12 [Compound 393] | < 22 | – |
| COc1cccc2[nH]c(C(=O)N3CC4(CC4)C[C@H]3C(=O)N[C@H](C#N)C[C@@H]3CCNC3=O)cc12 [Compound 397] | < 22 | – |
| COc1cccc2[nH]c(C(=O)N3CC4(CCCC4)C[C@H]3C(=O)N[C@H](C#N)C[C@@H]3CCNC3=O)cc12 [Compound 401, (S)—N—((S)-1-cyano-2-((S)-2-oxopyrrolidin-3-yl)ethyl)-2-(4-methoxy-1H-indole-2-carbonyl)-2-azaspiro[4.4]nonane-3-carboxamide] | < 22 | – |
| COc1cccc2[nH]c(C(=O)N[C@@H](CC(C)(C)C)C(=O)N[C@H](C#N)C[C@@H]3CCNC3=O)cc12 [Compound 405, N-[(1S)-1-[[(1S)-1-cyano-2-[(3S)-2-oxopyrrolidin-3-yl]ethyl]carbamoyl]-3,3-dimethyl-butyl]-4-methoxy-1H-indole-2-carboxamide] | < 22 | – |
| COc1cccc2[nH]c(C(=O)N[C@@H](CC(C)C)C(=O)NC(C#N)c3cccnc3)cc12 (stereo partly drawn) [Compound 433] | 2 to 10 | – |
| COc1cccc2[nH]c(C(=O)N[C@@H](CC3CC3)C(=O)N[C@H](C#N)C[C@@H]3CCCNC3=O)cc12 [Compound 491, N-[(1S)-2-[[(1S)-1-cyano-2-[(3S)-2-oxo-3-piperidyl]ethyl]amino]-1-(cyclopropylmethyl)-2-oxo-ethyl]-4-methoxy-1H-indole-2-carboxamide] | < 22 | – |
| CCNC(C#N)[C@H](C[C@@H]1CCNC1=O)NC(=O)[C@H](CC(C)C)NC(=O)c1cc2c(OC)cccc2[nH]1 (stereo partly drawn) [Compound 511, N-[(1S)-1-[[(1S)-2-cyano-2-(ethylamino)-1-[[(3S)-2-oxopyrrolidin-3-yl]methyl]ethyl]carbamoyl]-3-methyl-butyl]-4-methoxy-1H-indole-2-carboxamide] | < 22 | – |
| COc1cccc2[nH]c(C(=O)N3C[C@H](SC)C[C@H]3C(=O)N[C@H](C#N)C[C@@H]3CCNC3=O)cc12 [Compound 551] | 2 to 10 | – |
| N#C[C@H](C[C@@H]1CCCNC1=O)NC(=O)[C@H](CC1CC1)NC(=O)c1cc2ccc(Cl)cc2[nH]1 [Compound 635, 6-Chloro-N-[(1S)-2-[[(1S)-1-cyano-2-[(3S)-2-oxo-3-piperidyl]ethyl]amino]-1-(cyclopropylmethyl)-2-oxo-ethyl]-1H-indole-2-carboxamide] | < 22 | – |
| N#C[C@H](C[C@@H]1CCCNC1=O)NC(=O)[C@H](CC1CC1)NC(=O)c1nc2c(Cl)ccc(Cl)c2[nH]1 [Compound 637, 4,7-dichloro-N-[(1S)-2-[[(1S)-1-cyano-2-[(3S)-2-oxo-3-piperidyl]ethyl]amino]-1-(cyclopropylmethyl)-2-oxo-ethyl]-1H-benzimidazole-2-carboxamide] | < 22 | – |
| N#C[C@H](C[C@@H]1CCNC1=O)NC(=O)[C@H](CC1CC1)NC(=O)c1cc2c([nH]1)CCCC2 [Compound 711] | < 22 | – |
| N#C[C@H](C[C@@H]1CCCNC1=O)NC(=O)[C@H](CC1CC1)NC(=O)c1cc2c(Cl)nccc2[nH]1 [Compound 715] | < 22 | – |
| N#C[C@H](C[C@@H]1CCCNC1=O)NC(=O)[C@H](CC1CC1)NC(=O)c1cc2cc(Cl)ncc2[nH]1 [Compound 717] | < 22 | – |
| CC(C)(C)C[C@H](NC(=O)c1cc2cccc(Cl)c2[nH]1)C(=O)N[C@H](C#N)C[C@@H]1CCCNC1=O [Compound 721, 7-chloro-N—((S)-1-(((S)-1-cyano-2-((S)-2-oxopiperidin-3-yl)ethyl)amino)-4,4-dimethyl-1-oxopentan-2-yl)-1H-indole-2-carboxamide] | < 22 | – |
| CC(C)(C)C[C@H](NC(=O)c1cc2ccc(Cl)c(Cl)c2[nH]1)C(=O)N[C@H](C#N)C[C@@H]1CCCNC1=O [Compound 725] | < 22 | – |
| CC(C)(C)C[C@H](NC(=O)c1cc2c(Cl)ccc(Cl)c2[nH]1)C(=O)N[C@H](C#N)C[C@@H]1CCCNC1=O [Compound 735] | < 22 | – |
